Assays:
Type in all cases: cell-based
DLD-1 = experiment: MTS assay (cell growth inhibition), DLD-1; settings: DLD-1 cells, 72 hours incubation with test compound; concentration not given
Procedure: (§1) Cells were maintained at 37° C., 5% CO2 in DMEM media supplemented with 1% fetal bovine serum, penicillin/streptomycin and fungizone (Invitrogen). Cells were seeded into 96-well tissue culture plates at 3000 per well and cultured at 37° C. for 18 hours. Test compounds were dissolved and diluted to 300× in DMSO then diluted 1:40 in DMEM. Cells were incubated with test compounds for 72 hours followed by incubation with tetrazolium compound (3-(4,5-dimethylthiazol-2-yl)-5-(3-carboxymethoxyphenyl)-2-(4-sulfophenyl)-2H-tetrazolium, inner salt; MTS) and the electron coupling reagent, phenazine methosulfate (PMS) for 4 hours. […] The ability of compounds to inhibit cell growth in this assay is correlated with the reduction of dehydrogenase enzyme activity found in metabolically active cells. The measurement of the absorbance of the formazan was assessed using an ENVISION™ (Perkin Elmer) microplate reader at 492 nm. The calculated IC50 value is the concentration of the test compound that causes a 50% decrease in the absorbance.

NCI-H1299 = experiment: MTS assay (cell growth inhibition), NCI-H1299; settings: NCI-H1299 cells, 72 hours incubation with test compound; concentration not given
Procedure: as §1

Kato III = experiment: MTS assay (cell growth inhibition), Kato III; settings: Kato III cells, 72 hours incubation with test compound; concentration not given
Procedure: as §1

PACA-2 = experiment: MTS assay (cell growth inhibition), PACA-2; settings: PACA-2 cells, 72 hours incubation with test compound; concentration not given
Procedure: as §1

PC-3 = experiment: MTS assay (cell growth inhibition), PC-3; settings: PC-3 cells, 72 hours incubation with test compound; concentration not given
Procedure: as §1

MDA-MB = experiment: MTS assay (cell growth inhibition), MDA-MB; settings: MDA-MB cells, 72 hours incubation with test compound; concentration not given
Procedure: as §1

Row | Compound | MTS CELL KILL DATA (% INHIBITION) DLD-1 (DLD-1) | MTS CELL KILL DATA (% INHIBITION) NCI-H1299 (NCI-H1299) | MTS CELL KILL DATA (% INHIBITION) Kato III (Kato III) | MTS CELL KILL DATA (% INHIBITION) PACA-2 (PACA-2) | MTS CELL KILL DATA (% INHIBITION) PC-3 (PC-3) | MTS CELL KILL DATA (% INHIBITION) MDA-MB (MDA-MB)
1 | O=C1c2cnc3[nH]ncc3c2C(=O)N1CC1C[C@H]2CC[C@@H]1C2 (stereo partly drawn) [Example 35, 7-[(1R,4S)-bicyclo[2.2.1]hept-2-ylmethyl]pyrazolo[3,4-b]pyrrolo[3,4-d]pyridine-6,8(3H,7H)-dione] | C (C = <50% INHIBITION) | C (C = <50% INHIBITION) | C (C = <50% INHIBITION) | C (C = <50% INHIBITION) | C (C = <50% INHIBITION) | C (C = <50% INHIBITION)
2 | CCCCOc1ccc(CN2C(=O)c3cnc4[nH]ncc4c3C2=O)cc1 [Example 15, 7-(4-butoxybenzyl)pyrazolo[3,4-b]pyrrolo[3,4-d]pyridine-6,8(3H,7H)-dione] | C (C = <50% INHIBITION) | C (C = <50% INHIBITION) | C (C = <50% INHIBITION) | C (C = <50% INHIBITION) | B (B = 50-79% INHIBITION) | A (A = 80-100% INHIBITION)
3 | Cc1ccc(CCN2C(=O)c3cnc4[nH]ncc4c3C2=O)cc1 [Example 69, 7-[2-(4-methylphenyl)ethyl]pyrazolo[3,4-b]pyrrolo[3,4-d]pyridine-6,8(3H,7H)-dione] | C (C = <50% INHIBITION) | C (C = <50% INHIBITION) | C (C = <50% INHIBITION) | C (C = <50% INHIBITION) | C (C = <50% INHIBITION) | C (C = <50% INHIBITION)
4 | C[C@H](CN1C(=O)c2cnc3[nH]ncc3c2C1=O)c1ccccc1 [Example 121, 7-[(2S)-2-phenylpropyl]pyrazolo[3,4-b]pyrrolo[3,4-d]pyridine-6,8(3H,7H)-dione] | C (C = <50% INHIBITION) | C (C = <50% INHIBITION) | C (C = <50% INHIBITION) | C (C = <50% INHIBITION) | A (A = 80-100% INHIBITION) | B (B = 50-79% INHIBITION)
5 | O=C1c2cnc3[nH]nc(-c4cccc(F)c4)c3c2C(=O)N1CCc1ccccc1 [Example 165, 1-(3-fluorophenyl)-7-(2-phenylethyl)pyrazolo[3,4-b]pyrrolo[3,4-d]pyridine-6,8(3H,7H)-dione] | A (A = 80-100% INHIBITION) | C (C = <50% INHIBITION) | A (A = 80-100% INHIBITION) | A (A = 80-100% INHIBITION) | A (A = 80-100% INHIBITION) | A (A = 80-100% INHIBITION)
6 | Cc1cccc(N(CCC#N)CCN2C(=O)c3cnc4[nH]ncc4c3C2=O)c1 [Example 134, 3-{[2-(6,8-dioxo-6,8-dihydropyrazolo[3,4-b]pyrrolo[3,4-d]pyridin-7(3H)-yl)ethyl](3-methylphenyl)amino}propanenitrile] | C (C = <50% INHIBITION) | C (C = <50% INHIBITION) | C (C = <50% INHIBITION) | C (C = <50% INHIBITION) | C (C = <50% INHIBITION) | C (C = <50% INHIBITION)
7 | O=C1c2cnc3[nH]ncc3c2C(=O)N1Cc1c(F)ccc(Cl)c1F [Example 34, 7-(3-chloro-2,6-difluorobenzyl)pyrazolo[3,4-b]pyrrolo[3,4-d]pyridine-6,8(3H,7H)-dione] | A (A = 80-100% INHIBITION) | A (A = 80-100% INHIBITION) | A (A = 80-100% INHIBITION) | A (A = 80-100% INHIBITION) | A (A = 80-100% INHIBITION) | A (A = 80-100% INHIBITION)
8 | O=C1c2cnc3[nH]ncc3c2C(=O)N1CCc1cccc2ccccc12 [Example 77, 7-[2-(1-naphthyl)ethyl]pyrazolo[3,4-b]pyrrolo[3,4-d]pyridine-6,8(3H,7H)-dione] | A (A = 80-100% INHIBITION) | A (A = 80-100% INHIBITION) | A (A = 80-100% INHIBITION) | A (A = 80-100% INHIBITION) | A (A = 80-100% INHIBITION) | A (A = 80-100% INHIBITION)
9 | Cc1cccc(CCN2C(=O)c3cnc4[nH]ncc4c3C2=O)c1 [Example 86, 7-[2-(3-methylphenyl)ethyl]pyrazolo[3,4-b]pyrrolo[3,4-d]pyridine-6,8(3H,7H)-dione] | C (C = <50% INHIBITION) | C (C = <50% INHIBITION) | A (A = 80-100% INHIBITION) | C (C = <50% INHIBITION) | A (A = 80-100% INHIBITION) | A (A = 80-100% INHIBITION)
10 | O=C1c2cnc3[nH]ncc3c2C(=O)N1Cc1c(F)ccc(F)c1Cl [Example 48, 7-(2-chloro-3,6-difluorobenzyl)pyrazolo[3,4-b]pyrrolo[3,4-d]pyridine-6,8(3H,7H)-dione] | C (C = <50% INHIBITION) | C (C = <50% INHIBITION) | B (B = 50-79% INHIBITION) | B (B = 50-79% INHIBITION) | C (C = <50% INHIBITION) | A (A = 80-100% INHIBITION)
11 | CN(C)c1cccc(CN2C(=O)c3cnc4[nH]ncc4c3C2=O)c1 [Example 23] | C (C = <50% INHIBITION) | C (C = <50% INHIBITION) | C (C = <50% INHIBITION) | C (C = <50% INHIBITION) | C (C = <50% INHIBITION) | C (C = <50% INHIBITION)
12 | CC(CCN1C(=O)c2cnc3[nH]ncc3c2C1=O)CC(C)(C)C (stereo not drawn) [Example 117, 7-(3,5,5-trimethylhexyl)pyrazolo[3,4-b]pyrrolo[3,4-d]pyridine-6,8(3H,7H)-dione] | C (C = <50% INHIBITION) | C (C = <50% INHIBITION) | C (C = <50% INHIBITION) | C (C = <50% INHIBITION) | A (A = 80-100% INHIBITION) | A (A = 80-100% INHIBITION)
13 | O=C1c2cnc3[nH]ncc3c2C(=O)N1CC1CCCO1 (stereo not drawn) [Example 107, 7-(tetrahydrofuran-2-ylmethyl)pyrazolo[3,4-b]pyrrolo[3,4-d]pyridine-6,8(3H,7H)-dione] | C (C = <50% INHIBITION) | C (C = <50% INHIBITION) | C (C = <50% INHIBITION) | C (C = <50% INHIBITION) | B (B = 50-79% INHIBITION) | B (B = 50-79% INHIBITION)
14 | O=C1c2cnc3[nH]ncc3c2C(=O)N1CC1=Cc2ccccc2S1(=O)=O [Example 119, 7-[(1,1-dioxido-1-benzothien-2-yl)methyl]pyrazolo[3,4-b]pyrrolo[3,4-d]pyridine-6,8(3H,7H)-dione] | C (C = <50% INHIBITION) | C (C = <50% INHIBITION) | C (C = <50% INHIBITION) | C (C = <50% INHIBITION) | C (C = <50% INHIBITION) | B (B = 50-79% INHIBITION)
